Here are results for 4 molecules from patent US8030342B2, “Dendritic polyamidoamine phthalocyanine derivative” (Nihon University, priority 2006, dated 2011).

What all share (assay type): physicochemical
The nature of one series: UV-Vis spectra. The arrangement: λmax: unit not given here. The settings on record: for λmax: UV-Vis absorption maxima; for log ε: UV-Vis, at the λmax of the same line.
A short description of the next series: fluorescence spectra. The note with it: fluorescence maximum.
A further series is described as follows: ESR spectra. The source says:
Also, the data on g value indicate that the dendritic PC generates radicals.

“And” between values parts separate entries of the source, which are not always exact repeats. Identical values can stand only once.

For the molecule `c1ccc2c(c1)-c1nc-2nc2[nH]c(nc3nc(nc4[nH]c(n1)c1ccccc41)-c1ccccc1-3)c1ccccc21` [H2—PC], the λmax in “UV-Vis spectra” was 687.50 and 654.00 and 624.50. In the series “fluorescence spectra”, the Fmax is 625 and 700. Moreover, the g value in “ESR spectra” was 1.9712 and 2.0245.

Consider `O=C(O)c1cc2c(cc1C(=O)O)-c1nc-2nc2[n-]c(nc3nc(nc4[n-]c(n1)c1cc(C(=O)O)c(C(=O)O)cc41)-c1cc(C(=O)O)c(C(=O)O)cc1-3)c1cc(C(=O)O)c(C(=O)O)cc21.[Zn+2]` [Zn—PC octacarboxylic acid, Zinc Phthalocyanine (PC) Octacarboxylic Acid], for which, in the series “UV-Vis spectra”, the λmax is 769.00 and 747.00; the “log ε” value was 4.2560 and 4.2054. Also, the Fmax in the series “fluorescence spectra” came out at 780. For the same molecule, the g value in the series “ESR spectra” was 1.9713 and 2.0245.

As to `c1ccc2c(c1)C1=NC2=Nc2c3ccccc3c3[n]2[Zn][n]2c(c4ccccc4c2=NC2=NC(=N3)c3ccccc32)=N1` [Zn—PC], in the series “UV-Vis spectra”, the λmax was 655.50 and 607.00; the “log ε” value is 4.5813 and 4.5391. Besides, in the series “fluorescence spectra”, the Fmax is 715. Moreover, the g value in the series “ESR spectra” was 1.9712 and 2.0245.

For the molecule “Zinc Phthalocyanine Tetracarboxylic Acid [Zn—PC tetracarboxylic acid]”, the λmax in the series “UV-Vis spectra” was 690.50 and 772.50. In addition, the Fmax in the series “fluorescence spectra” worked out at 805. Also, in the series “ESR spectra”, the g value is 2.0245 and 1.9713.
